Measurements as given in paper PMC10817170, “Effect of an NHE3 inhibitor in combination with an NPT2b inhibitor on gastrointestinal phosphate absorption in Rodent models” (PLOS ONE, 2024).
Several values for one entry are separate records, joined by “and”; a condition that tells them apart may be missing. Equal entries are not always repeated.

What was measured:
[1] = system: acute phosphate uptake into plasma; assay: Acute phosphate uptake in rats, LY3304000 with fixed 1.2 mg/kg LY3358966; type: in vivo; conditions: 1.2 mg/kg LY3358966 alone
Experimental: NHE3 inhibitor LY3304000 and NPT2b inhibitor LY3358966 SDD were used in combination to assess their effect on phosphate absorption in rats. To make the LY3358966 dosing solution, an appropriate amount of LY3358966 SDD was weighed for a 1.2 mg/kg API dosing solution with 10 mL/kg dosing volume and dissolved in water. To make the LY3304000 dosing solution, an appropriate amount of LY3304000 was weighed for a 10 mg/kg dose with 10 mL/kg dosing volume and dissolved in 1% HEC vehicle. The subsequent dosing solutions for 3, 1, 0.3, 0.1, 0.03, 0.01, 0.003, and 0.001 mg/kg LY3304000 were prepared by serial dilutions with 1% HEC. Following 12-hour fasting, male SD rats were orally dosed at 10 mL/kg with 1% HEC vehicle, 1.2 mg/kg LY3358966 or increasing doses of LY3304000 with a fixed, 1.2 mg/kg dose of LY3358966. In the vehicle group, the animals were dosed first with 1% HEC immediately followed by water. In the LY3358966 alone group, the animals were first dosed with 1% HEC immediately followed by LY3358966. In the combination groups, the animals were dosed first with LY3304000 immediately followed by LY3358966. Fifteen minutes later, 2 mL Radiolabeled Phosphate Dosing Solution was orally dosed. Fifteen minutes later, blood was collected by cardiac stick, and plasma was prepared. Radioactivity (dpm) in 50-μL plasma was measured by scintillation counting. To measure the total radioactivity dosed to each rat, the radioactivity in two 10-μL samples of the Radiolabeled Phosphate Dosing Solutions was measured by scintillation counting. The mole amount of phosphate uptake was calculated as described above to determine acute phosphate uptake.

[2] = system: intestinal phosphate absorption; assay: Phosphate absorption in rats: 33P in plasma (15 min) and recovered in gastrointestinal tract (4 h), single agents and combination; type: in vivo; conditions: 0.4 mg/kg LY3304000, 10 mg/kg LY3358966 or both
Experimental: We also evaluated the effect of LY3304000 and LY3358966 in combination on phosphate absorption in rats by measuring radioactive phosphate recovered in either plasma or the gastrointestinal (GI) tract. In this combination study, two vehicles were used. One is 1% HEC vehicle for making LY3304000 dosing solution, another is 0.46% PVP-VA vehicle contained in LY3358966 SDD. To make the LY3358966 dosing solution, an appropriate amount of LY3358966-SDD was weighed for a 10 mg/kg API dosing solution with 5 mL/kg dosing volume and dissolved in water. To make the LY3304000 dosing solution, an appropriate amount of LY3304000 was weighed for a 0.4 mg/kg dosing solution with 5 mL/kg dosing volume and dissolved in 1% HEC. The Radiolabeled Phosphate Dosing Solutions was made as described above. Following 4-hour fasting with access to water, male SD rats were orally dosed at 10 mL/kg with either two vehicles, an LY3358966 dosing solution and 1% HEC vehicle, an LY3304000 dosing solution and 0.46% PVP-VA vehicle, or an LY3304000 and LY3358966 dosing solutions, combined 1:1 by volume. Fifteen minutes later, Radiolabeled Phosphate Dosing Solution was orally dosed in a 2 mL volume. Fifteen minutes after the radiolabeled phosphate dose, blood was collected by retro orbital bleeding, and plasma was prepared. Radioactivity (dpm) in 20-μL plasma was measured by scintillation counting. The mole amount of phosphate uptake in the plasma was calculated as described above. Four hours post radioactive phosphate dose, the animals were sacrificed by asphyxiation with CO2 followed by cervical dislocation and then the stomach, small intestine, large intestine, and feces were collected and weighed. The tissues and feces were digested in 20 mL or 10 mL of 1 N NaOH, respectively, overnight at 37°C. A 100 μL sample of the homogenates were dispensed into scintillation vials and mixed with 10 mL of Optiphase Supermax scintillation fluid (PerkinElmer), and radioactivity (dpm) was measured by scintillation counting. Very little radioactivity was detected in the feces at 4 hours post radioactive phosphate dose. The percentage of radiolabeled phosphate recovered in the gastrointestinal tissue was defined as radioactivity (dpm) recovered in each fraction compared to the amount of radioactivity (dpm) administered. The mole amount of phosphate uptake into plasma in vehicle and LY3358966 and LY3304000 alone groups were compared to the LY3358966 and LY3304000 combination group using One-way ANOVA with Dunnett’s multiple comparisons. Percent recovery of ^33P phosphate in the rat gastrointestinal tract was analyzed by two-way analysis of variance (ANOVA) in JMP 12.1 to test for additivity of the effects of LY3304000 and LY3358966 on inhibiting phosphate absorption.

[3] = system: acute phosphate uptake into plasma; parameters: method as in PMID 35194979; conditions: mice; cited from earlier work
[4] = system: acute phosphate uptake into plasma; parameters: method as in PMID 35194979; conditions: rats; cited from earlier work
[5] = system: acute phosphate uptake into plasma; parameters: method as in PMID 34978760; conditions: cited from earlier work
phosphate absorption = system: phosphate absorption; parameters: method as in PMID 30158152; conditions: cited from earlier work

Row | SMILES | phosphate uptake, % of the vehicle control [1] [%] | phosphate uptake into plasma ([1]; vehicle 710 nmoles) [nmol] | phosphate uptake into plasma ([2]; 15 min post 33P phosphate, vehicle 166, mean ± SEM, n=8) [nmol] | inhibition of phosphate uptake into plasma ([2]; 15 min post 33P phosphate, versus vehicle) [%] | percentage of radiolabeled phosphate recovered, Feces ([2]; 4 h) [%] | percentage of radiolabeled phosphate recovered, Large Intestine ([2]; 4 h) | percentage of radiolabeled phosphate recovered, Small Intestine ([2]; 4 h) | percentage of radiolabeled phosphate recovered, Stomach ([2]; 4 h) | percentage of 33P recovered in GI tract, total ([2]; 4 h post 33P phosphate, stomach, small intestine, large intestine and feces, vehicle 25%) | decrease of acute uptake of radiolabeled phosphate into plasma [3] | inhibition of acute phosphate uptake [4] | effect on plasma 33P-phosphate in NHE3 knockout mice ([5]; 60 minutes after dosing 33P-phosphate) | 33P-phosphate levels in plasma, lower than vehicle ([5]; mice, 5 minutes post phosphate dose) | 33P-phosphate levels in plasma, elevated versus vehicle ([5]; mice, 60 min post phosphate dose) | effect on phosphate absorption (phosphate absorption)
1 | CC1(C)CN(C(=O)NCCCCO)CCN1Cc1cccc(C(=O)Nc2sc3c(c2C(=O)Nc2cc(F)c(CCc4ccc(C(=O)O)cc4)c(F)c2)CCCC3)c1 [LY3358966] | 71 | 504 | 108 | 35 | <0.1 | 18.43 +/- 2.03% | 8.98 +/- 0.48% | 4.86 +/- 1.13% | 32 ± 1% and 32% and 32.27 +/- 1.38% | over 70% | 20–30% | – | – | – | –
2 | CN1Cc2c(Cl)cc(Cl)cc2[C@H](c2cccc(S(=O)(=O)NCCOCCOCCNC(=O)NCCCCNC(=O)NCCOCCOCCNS(=O)(=O)c3cccc([C@@H]4CN(C)Cc5c(Cl)cc(Cl)cc54)c3)c2)C1 [tenapanor] | – | – | – | – | – | – | – | – | – | – | – | no effect | about 67% | about 50% | little effect
